From ChEMBL document CHEMBL5584208, “Conformationally constrained potent inhibitors for enhancer of zeste homolog 2 (EZH2)” (Bioorg Med Chem Lett, 2024)

How the values were obtained:
[1] = Cmax in mouse at 10 mg/kg, po; type: ADME, organism-based; details: in vivo
[2] = Oral bioavailability in mouse at 10 mg/kg; type: ADME, organism-based; details: in vivo
[3] = test system: KARPAS-422; experiment: Antiproliferative activity against human KARPAS-422 cells harboring EZH2 Y641N mutant; type: functional, cell-based
[4] = AUC (0 to t) in mouse at 10 mg/kg, po; type: ADME, organism-based; details: in vivo
[5] = test system: Pfeiffer; experiment: Antiproliferative activity against human Pfeiffer cells harboring EZH2 A677G mutant; type: functional, cell-based
[6] = test system: WSUDLCL2; experiment: Antiproliferative activity against human WSUDLCL2 cells harboring EZH2 Y641F mutant; type: functional, cell-based
[7] = Half life in mouse at 2 mg/kg, iv; type: ADME, organism-based; details: in vivo
[8] = AUC (0 to t) in mouse at 2 mg/kg, iv; type: ADME, organism-based; details: in vivo
[9] = Volume of distribution at steady state in mouse at 2 mg/kg, iv; type: ADME, organism-based; details: in vivo, read-out: Vdss
[10] = Cmax in mouse at 2 mg/kg, iv; type: ADME, organism-based; details: in vivo
[11] = AUC (0 to infinity) in mouse at 10 mg/kg, po; type: ADME, organism-based; details: in vivo
[12] = Clearance in mouse at 2 mg/kg, iv; type: ADME, organism-based; details: in vivo
[13] = AUC (0 to infinity) in mouse at 2 mg/kg, iv; type: ADME, organism-based; details: in vivo
[14] = Half life in mouse at 10 mg/kg, po; type: ADME, organism-based; details: in vivo
[15] = Metabolic stability in dog liver microsomes assessed as half life; type: ADME, Canis lupus familiaris, Microsome
[16] = Metabolic stability in monkey liver microsomes assessed as intrinsic clearance in liver; type: ADME, Macaca mulatta, Microsome; details: rhesus monkey, read-out: CLH
[17] = Metabolic stability in dog liver microsomes assessed as intrinsic clearance in hepatocytes measured per million cells; type: ADME, Canis lupus familiaris, Microsome
[18] = Metabolic stability in human liver microsomes assessed as half life; type: ADME, Microsome
[19] = Metabolic stability in rat liver microsomes assessed as half life; type: ADME, Microsome
[20] = Metabolic stability in rat liver microsomes assessed as intrinsic clearance in hepatocytes measured per million cells; type: ADME, Microsome
[21] = Metabolic stability in rat liver microsomes assessed as intrinsic clearance in liver; type: ADME, Microsome; details: read-out: CLH
[22] = Toxicity in mouse xenografted with human KARPAS-422 cells harboring EZH2 Y641N mutant assessed as body weight loss at 100 mg/kg, po bid for 28 days; type: organism-based; details: in vivo, 672 h, time 28 day
[23] = Drug concentration in human KARPAS-422 cells harboring EZH2 Y641N mutant xenografted in mouse at 100 mg/kg, po measured after 8 hrs; type: ADME, organism-based; details: KARPAS-422 xenograft tumour, read-out: Ct
[24] = Metabolic stability in monkey liver microsomes assessed as half life; type: ADME, Macaca mulatta, Microsome; details: rhesus monkey
[25] = Drug concentration in human KARPAS-422 cells harboring EZH2 Y641N mutant xenografted in mouse at 100 mg/kg, po measured after 4 hrs; type: ADME, organism-based; details: KARPAS-422 xenograft tumour, read-out: Ct
[26] = test system: Pfeiffer; experiment: Antitumor activity against human Pfeiffer cells harboring EZH2 A677G mutant xenografted in mouse at 100 mg/kg, po qd for 28 days relative to control; type: functional; details: 672 h, time 28 day, read-out: TGI
[27] = test system: KARPAS-422; experiment: Antitumor activity against human KARPAS-422 cells harboring EZH2 Y641N mutant xenografted in mouse at 100 mg/kg, po bid for 28 days relative to control; type: functional; details: KARPAS-422, 672 h, time 28 day, read-out: TGI
[28] = Toxicity in mouse xenografted with human Pfeiffer cells harboring EZH2 A677G mutant assessed as body weight loss at 100 mg/kg, po qd for 28 days; type: organism-based; details: in vivo, 672 h, time 28 day
[29] = Metabolic stability in human liver microsomes assessed as intrinsic clearance in hepatocytes measured per million cells; type: ADME, Microsome
[30] = Metabolic stability in mouse liver microsomes assessed as intrinsic clearance in liver; type: ADME, Microsome; details: read-out: CLH
[31] = Metabolic stability in mouse liver microsomes assessed as half life; type: ADME, Microsome
[32] = Metabolic stability in dog liver microsomes assessed as intrinsic clearance in liver; type: ADME, Canis lupus familiaris, Microsome; details: read-out: CLH
[33] = Metabolic stability in mouse liver microsomes assessed as intrinsic clearance in hepatocytes measured per million cells; type: ADME, Microsome
[34] = Metabolic stability in human liver microsomes assessed as intrinsic clearance in liver; type: ADME, Microsome; details: read-out: CLH
[35] = Metabolic stability in monkey liver microsomes assessed as intrinsic clearance in hepatocytes measured per million cells; type: ADME, Macaca mulatta, Microsome; details: rhesus monkey

Structure (SMILES): CCN(c1cc(-c2ccc3c(c2)NC(=O)C32CCN(C)CC2)cc(C(=O)NCc2c(C)cc(C)[nH]c2=O)c1C)C1CCOCC1
- Cmax [1]: 13.5 ng/mL
- bioavailability [2]: 0.06%
- IC50 [3]: 2.19 nM
- AUC(0-t) [4]: 3.4 ng·h/mL
- IC50 [5]: 1.98 nM
- IC50 [6]: 3.58 nM
- half-life [7]: 37.2 min
- AUC(0-t) [8]: 1230 ng·h/mL
- Vd [9]: 0.688 L/kg
- Cmax [10]: 3680 ng/mL
- AUC(0-inf) [11]: 3.4 ng·h/mL
- clearance [12]: 27.9 mL/min/kg
- AUC(0-inf) [13]: 1230 ng·h/mL

Structure (SMILES): CCN(c1cc(-c2ccc3c(c2)NC(=O)C32CCOCC2)cc(C(=O)NCc2c(C)cc(C)[nH]c2=O)c1C)C1CCOCC1
- Cmax [1]: 152 ng/mL
- bioavailability [2]: 7.4%
- half-life [14]: 37.2 min
- IC50 [3]: 0.98 nM
- AUC(0-t) [4]: 122 ng·h/mL
- IC50 [5]: 0.56 nM
- IC50 [6]: 1.34 nM
- half-life [7]: 25.2 min
- AUC(0-t) [8]: 331 ng·h/mL
- Vd [9]: 2.61 L/kg
- Cmax [10]: 912 ng/mL
- AUC(0-inf) [11]: 125 ng·h/mL
- clearance [12]: 99.7 mL/min/kg
- AUC(0-inf) [13]: 340 ng·h/mL

Structure (SMILES): CCN(c1cc(-c2ccc(CN3CCOCC3)cc2)cc(C(=O)NCc2c(C)cc(C)[nH]c2=O)c1C)C1CCOCC1 [TAZEMETOSTAT]
- half-life [15]: 20.8 min
- CLint scaled [16]: 237 mL/min/kg
- CLH [17]: 66.5 µL/min
- Cmax [1]: 1950 ng/mL
- bioavailability [2]: 32%
- half-life [14]: 52.8 min
- IC50 [3]: 3.86 nM
- AUC(0-t) [4]: 4340 ng·h/mL
- IC50 [5]: 2.26 nM
- half-life [18]: 58.7 min
- half-life [19]: 18.7 min
- CLH [20]: 74.1 µL/min
- IC50 [6]: 6.44 nM
- CLint scaled [21]: 347 mL/min/kg
- Activity [22]: Non-Toxic
- half-life [7]: 35.4 min
- AUC(0-t) [8]: 2710 ng·h/mL
- concentration at 8 h [23]: 416 ng/mL
- half-life [24]: 21 min
- concentration at 4 h [25]: 2340 ng/mL
- Vd [9]: 0.623 L/kg
- inhibition in vivo at 100 mg/kg [26]: 71.9%
- inhibition in vivo at 100 mg/kg [27]: 20.2%
- Activity [28]: Non-Toxic
- CLH [29]: 23.6 µL/min
- CLint scaled [30]: 1720 mL/min/kg
- half-life [31]: 9.6 min
- Cmax [10]: 2010 ng/mL
- CLint scaled [32]: 458 mL/min/kg
- AUC(0-inf) [11]: 4370 ng·h/mL
- clearance [12]: 12.4 mL/min/kg
- CLH [33]: 144.6 µL/min
- AUC(0-inf) [13]: 2720 ng·h/mL
- CLint scaled [34]: 65.7 mL/min/kg
- CLH [35]: 65.9 µL/min
